In patent US20250089713A1, “METHOD OF CONTROLLING OR REDUCING SENESCENCE IN PLANTS AND SEEDS” (Bedoukian Reseach, Inc., priority 2023, published 2025):
“And” between values parts separate entries of the source, which are not always exact repeats. Equal entries are not always repeated.

What was measured:
[1] = system: corn (Kandy Korn, extra sweet) plants; assay: Reduction of plant wilting senescence, foliar spray on corn seedlings; type: in vivo; settings: foliar spray of 1 mM (0.023% wt) in water at day 18, observed at day 25, n = 12, untreated 65%
Experimental: Seeds of corn (Kandy Korn, extra sweet) are planted in 2-inch pots. Seedlings are grown in 2-inch pots under 16-hour day/8-hour night greenhouse conditions. Plants are placed outdoors and receive 5-6 hours of natural, direct light 4-6 days per week. At day 18, seedlings receive one of two treatments: T1: untreated plants (n=11) and T2: treated, plants with foliar spray of 1 mM (0.023% wt) of methyl dihydrojasmonate (MDJ) in water. Plants are sprayed until the point of drip. (n=12). At day 25, plants are observed and senescence is recorded (percentage of wilting plants).

[2] = system: seeds of the corn varietal Kandy Korn; assay: Reduction of retarded seed germination rate senescence, seed soak (germination rate and radicle length); type: in vivo
Experimental: Non-germinated seeds of the corn varietal Kandy Korn are soaked in one of two treatment solutions: T1: untreated, only water and T2: treated, 1.5 mM (0.034% wt) of methyl dihydrojasmonate (MDJ) in water for 24 hours in 50 mL conical vessels. During the soak event, the seeds spend 12 hours in typical lighting conditions and 12 hours in darkness. Following seed treatment, the treatment solutions are drained from their vessels and a selection of seeds are taken from each vessel for planting. Six two-inch pots are planted for each treatment group, with three seeds per pot, for a total of 18 seeds planted per treatment. The unplanted seeds are allowed to remain in their original vessels in lighted conditions. In addition to determining the germination rate, the radicle lengths of the germinated seeds are measured.

Structure (SMILES): CCCCCC1C(=O)CCC1CC(=O)OC (stereo not shown) [MDJ, methyl dihydrojasmonate]
- % of plants with senescing plant wilting [1]: 25%
- Germination Rate (percent of seeds that germinated) ([2]; corn seeds soaked 24 hours in 1.5 mM (0.034% wt) in water, n = 10, untreated (only water) 50%): 100%
- Radicle length measurements of unplanted germinated seeds (individual seeds) ([2]; corn seeds soaked 24 hours in 1.5 mM in water, one value per seed, untreated 1-3 mm, listed as Methyl Dihydrojasmonate (MDJ)): 5 mm (3×) and 6 mm (2×) and 4 mm (4×) and 3 mm
- average radicle length compared with untreated (only water) ([2]; corn seeds soaked in 1.5 mM, FIG. 2): significantly longer
